The subject of assay [1] is Staphylococcus aureus bacteria (ATCC 9604 SV). In words: Minimal inhibitory concentration (MIC), broth microdilution. Type of assay: cell-based. The settings on record: 24 h at 37° C. The method, then: Minimal inhibitory concentrations (MICs) for Staphylococcus aureus bacteria (ATCC 9604 SV) were determined by broth microdilution methodology following National Committee for Clinical Laboratory Standards. In the MIC determinations, the compounds were incorporated into Mueller-Hinton broth (Becton Dickinson Microbiology systems, Cockeyville, Md.) at a series of concentrations. After the test organism was grown overnight in TB broth, the broths were adjusted to the turbidity equivalent to 0.05 McFarland standard. The suspensions were diluted twenty-fold into the broth containing the compounds. […] In the IC50 determination, the method was modified to allow the rapid growth of the organisms. The inoculum suspensions were adjusted to 0.1 McFarland standard and then diluted two-fold into the wells containing TB broth and the compounds. After three to five hours incubation at 37° C., the turbidity was measured at 550 nm and inhibitory activity was defined as the concentration of antimicrobial agent that inhibits 50% growth of the organism in the microdilution wells.
For orientation: Broth dilution looks for growth in wells or tubes with falling amounts of substance.

For assay [2], the system named is methicillin-resistant Staphylococcus aureus (ATCC 33591). In words: In vivo mouse intraperitoneal infection, mortality and % survivors over 7 days. The settings on record: 1 and 5 h post inoculation, MRSA ATCC 33591 i.p., ICR mice. As for the experimental part:
Ten male ICR mice weighing 20 grams were inoculated intraperitoneally with an LD90-100 dose (2-3×10^7 CFU/mouse) of methicillin-resistant Staphylococcus aureus (ATCC 33591) in brain-heart infusion broth containing 5% mucin. Compounds were suspended in a vehicle containing 1% cremophore EL (Sigma) in normal saline and were administered subcutaneously in a volume of 0.4 ml per mouse either 1 hour following bacterial inoculation or 1 and 5 hours post inoculation. Animals receiving two doses of drug were injected subcutaneously in the hindquarter one hour post-innoculation and in the neck area, 5 hours post-innoculation. Deaths occurring during the subsequent 7 days are recorded. Mortality and % survivor endpoints are calculated.

Where [3] appears, read: Staphylococcus aureus ATCC 9604 SV.
The mark [4] stands for this setting: ATCC9604, Staphylococcus aureus ATCC 9604 SV, read-out: MIC.

≈ marks a conversion by molar mass, not a printed value. Where two headings read alike, the source gives them in different places.

As a reminder, the MIC is the least concentration at which growth counts as inhibited.

In turn, `CC1(C)C(=O)N(c2cc(Cl)cc(Cl)c2)N=C1c1ccccc1` [Compound 4] registered an MIC in assay [1] (setting [3]) greater than 8.33 µg/mL.

In assay [1] (setting [3]), `CC1=NN(c2cc(Cl)cc(Cl)c2)C(=O)C1` [Compound 5] came in with an MIC of 6.08 µg/mL (≈ 25 µM).

In assay [1] (setting [3]), `Cc1ccc(C2=NN(c3cc(Cl)cc(Cl)c3)C(=O)C2)cc1` [Compound 6] gave an MIC greater than 7.98 µg/mL.

For `O=C1CC(c2ccccc2F)=NN1c1cc(Cl)cc(Cl)c1` [Compound 7], in assay [1] (setting [3]), the minimum inhibitory concentration (MIC) was greater than 8.08 µg/mL.

With `O=C1CC(C2CCCCC2)=NN1c1cc(Cl)cc(Cl)c1` [Compound 8], the MIC in assay [1] (setting [3]) was greater than 7.78 µg/mL.

With `CN(C)C=C1C(=O)N(c2cc(Cl)cc(Cl)c2)N=C1c1ccccc1` [Compound 9, 2-(3,5-Dichloro-phenyl)-4-dimethylaminomethylene-5-phenyl-2,4-dihydro-pyrazol-3-one], the MIC in assay [1] (setting [4]) is greater than 9.01 µg/mL.

In turn, `CCCC1=NN(c2cc(Cl)cc(Cl)c2)C(=O)C1` [Compound 10] had an MIC in assay [1] (setting [3]) of 0.813 µg/mL (≈ 3 µM). Also, the “In Vivo, double dose (% of mice rescued)” value in assay [2] (2 × 2 mg/kg s.c.) turned out to be 0% @ 2 × 2 mg/kg; in assay [2] (2 × 20 mg/kg s.c.), 0% @ 2 × 20 mg/kg.

In the case of `CC1=NN(c2cc(Cl)cc(Cl)c2)C(=O)C1C` (stereo not drawn) [Compound 11], the MIC in assay [1] (setting [3]) is greater than 6.43 µg/mL.

Regarding `O=C1C2CCCC2=NN1c1cc(Cl)cc(Cl)c1` (stereo not drawn) [Compound 12], in assay [1] (setting [3]), the MIC is greater than 6.73 µg/mL.

`CC(C)C1=NN(c2cc(Cl)cc(Cl)c2)C(=O)C1` [Compound 13] returned an MIC in assay [1] (setting [3]) greater than 6.78 µg/mL.

In turn, `O=C1CC(C(F)(F)F)=NN1c1cc(Cl)cc(Cl)c1` [Compound 14] registered an MIC in assay [1] (setting [3]) of 3.56 µg/mL (≈ 12 µM).

In the case of `O=C1CC(c2cccc(F)c2)=NN1c1cc(Cl)cc(Cl)c1` [Compound 15], the MIC in assay [1] (setting [3]) came to 0.485 µg/mL (≈ 1.5 µM). The “In Vivo, double dose (% of mice rescued)” value in assay [2] (2 × 2 mg/kg s.c.) turned out to be 0% @ 2 × 2 mg/kg; in assay [2] (2 × 20 mg/kg s.c.) it was 0% @ 2 × 20 mg/kg.

The molecule `O=C1CC(c2ccc(F)cc2)=NN1c1cc(Cl)cc(Cl)c1` [Compound 16] displayed an MIC in assay [1] (setting [3]) of 0.485 µg/mL (≈ 1.5 µM). The “In Vivo, double dose (% of mice rescued)” value stood at 0% @ 2 × 2 mg/kg in assay [2] (2 × 2 mg/kg s.c.) and 25% @ 2 × 20 mg/kg in assay [2] (2 × 20 mg/kg s.c.).

For the molecule `CCC1=NN(c2cc(Cl)cc(Cl)c2)C(=O)C1` [Compound 17], in assay [1] (setting [3]), the minimal inhibitory concentration (MIC) is 1.54 µg/mL (≈ 5.99 µM). Besides, the “In Vivo, double dose (% of mice rescued)” value is recorded as 12.5% @ 2 × 2 mg/kg in assay [2] (2 × 2 mg/kg s.c.) and 25% @ 2 × 20 mg/kg in assay [2] (2 × 20 mg/kg s.c.).

Turning to `O=C1C2CCCCC2=NN1c1cc(Cl)cc(Cl)c1` (stereo not drawn) [Compound 18], the MIC in assay [1] (setting [3]) is greater than 7.08 µg/mL.

The molecule `O=C1C(=Cc2ccncc2)C(c2ccccc2)=NN1c1cc(Cl)cc(Cl)c1` [Compound 19] returned an MIC in assay [1] (setting [3]) of 1.15 µg/mL (≈ 2.92 µM). Moreover, the “In Vivo, double dose (% of mice rescued)” value in assay [2] (2 × 2 mg/kg s.c.) is on record as 0% @ 2 × 2 mg/kg; in assay [2] (2 × 20 mg/kg s.c.) it was 25% @ 2 × 20 mg/kg.

`CCC1C(=O)N(c2cc(Cl)cc(Cl)c2)N=C1C` (stereo not drawn) [Compound 20]: the minimal inhibitory concentration (MIC) in assay [1] (setting [3]) is greater than 6.78 µg/mL.

For the molecule `CC1=NN(c2cc(Cl)cc(Cl)c2)C(=O)C1Cc1ccccc1` (stereo not drawn) [Compound 21], the MIC in assay [1] (setting [3]) was determined as 8.33 µg/mL (≈ 25 µM).

With `CC(C)=C1C(=O)N(c2cc(Cl)cc(Cl)c2)N=C1c1ccccc1` [Compound 22], the MIC in assay [1] (setting [3]) was determined as 0.518 µg/mL (≈ 1.5 µM). For the same molecule, the entries for the “In Vivo, double dose (% of mice rescued)” value in assay [2] (2 × 2 mg/kg s.c.) and in assay [2] (2 × 20 mg/kg s.c.) were 0% @ 2 × 2 mg/kg and 25% @ 2 × 20 mg/kg, respectively.

As for `O=C1C(=NO)C(c2ccccc2)=NN1c1cc(Cl)cc(Cl)c1` [Compound 23, 2-(3,5-Dichloro-phenyl)-5-phenyl-2H-pyrazole-3,4-dione-4-oxime], the MIC in assay [1] (setting [4]) came to 8.35 µg/mL (≈ 25 µM). Also, the “In Vivo, double dose (% of mice rescued)” value in assay [2] (2 × 2 mg/kg s.c.) was 0% @ 2 × 2 mg/kg; in assay [2] (2 × 20 mg/kg s.c.), 25% @ 2 × 20 mg/kg.

Regarding `O=C(O)c1ccccc1C=C1C(=O)N(c2cc(Cl)cc(Cl)c2)N=C1c1ccccc1` [Compound 24], in assay [1] (setting [3]), the MIC came out at 1.35 µg/mL (≈ 3.09 µM). Besides, the results for the “In Vivo, double dose (% of mice rescued)” value in assay [2] (2 × 2 mg/kg s.c.) and in assay [2] (2 × 20 mg/kg s.c.) were 0% @ 2 × 2 mg/kg and 0% @ 2 × 20 mg/kg, respectively.

For the molecule `CC(=O)C=C1C(=O)N(c2cc(Cl)cc(Cl)c2)N=C1c1ccccc1` [Compound 25], the MIC in assay [1] (setting [3]) came out at 3.12 µg/mL (≈ 8.69 µM). Further, the “In Vivo, double dose (% of mice rescued)” value was 0% @ 2 × 2 mg/kg in assay [2] (2 × 2 mg/kg s.c.) and 0% @ 2 × 20 mg/kg in assay [2] (2 × 20 mg/kg s.c.).

In assay [1] (setting [3]), `O=C(C=C1C(=O)N(c2cc(Cl)cc(Cl)c2)N=C1c1ccccc1)c1ccccc1` [Compound 26] gave an MIC greater than 12.5 µg/mL.

Take `CCN(CC)c1ccc(C=C2C(=O)N(c3cc(Cl)cc(Cl)c3)N=C2c2ccccc2)cc1` [Compound 27]: the MIC in assay [1] (setting [3]) is greater than 12.5 µg/mL.

With `CN(C)CCCOc1ccc(C=C2C(=O)N(c3cc(Cl)cc(Cl)c3)N=C2c2ccccc2)cc1` [Compound 28], the MIC in assay [1] (setting [3]) is greater than 12.5 µg/mL.

`O=C1C(=Cc2ccccn2)C(c2ccccc2)=NN1c1cc(Cl)cc(Cl)c1` [Compound 29] gave an MIC in assay [1] (setting [3]) of 12.5 µg/mL (≈ 31.7 µM).

`Cn1cccc1C=C1C(=O)N(c2cc(Cl)cc(Cl)c2)N=C1c1ccccc1` [Compound 32]: in assay [1] (setting [3]), the MIC stood at 0.320 µg/mL (≈ 0.808 µM).

Values taken from patent US6410533B1, “Antibacterial compounds” (Genzyme Corporation, priority 2000, dated 2002).
